Measured values published in US7473688B2, “Indolobenzazepine HCV NS5B inhibitors” (Bristol-Myers Squibb Company, priority 2005, dated 2009).
Read-outs that look alike come from different tables or passages of the source.

How the values were obtained:
HCV replicon = HCV replicon FRET assay; assay type: cell-based; settings: Hepatitis C virus, FRET assay, read-out: EC50*
Source text: FRET Assay Preparation. To perform the HCV FRET screening assay, 96-well cell culture plates were used. The FRET peptide (Anaspec, Inc.) (Taliani et al., Anal. Biochem. 1996, 240, 60-67) contains a fluorescence donor, EDANS, near one end of the peptide and an acceptor, DABCYL, near the other end. The fluorescence of the peptide is quenched by […] resonance energy transfer (RET) between the donor and the acceptor, but as the NS3 protease cleaves the peptide the products are released from RET quenching and the fluorescence of the donor becomes apparent. The assay reagent was made as follows: 5× cell Luciferase cell culture lysis reagent from Promega (#E153A) diluted to 1× with dH2O, NaCl added to 150 mM final, the FRET peptide diluted to 20 uM final from a 2 mM stock.
To prepare plates, HCV replicon cells, with or without a Renilla luciferase reporter gene, were trypsinized and placed into each well of a 96-well plate with titrated test compounds added in columns 3 through 12; columns 1 and 2 contained a control compound (HCV protease inhibitor), and the bottom row contained cells without compound. The plates were then placed in a CO2 incubator at 37° C.
Assays. Subsequent to addition of the test compounds described above (FRET Assay Preparation), at various times the plate was removed and Alamar blue solution (Trek Diagnostics, #00-100) was added per well as a measure of cellular toxicity. After reading in a Cytoflour 4000 instrument (PE Biosystems), plates were rinsed with PBS and then used for FRET assay by the addition of 30 ul of the FRET peptide assay reagent described above (FRET Assay Preparation) per well. The plate was then placed into the Cytoflour 4000 instrument which had been set to 340 excite/490 emission, automatic mode for 20 cycles and the plate read in a kinetic mode. Typically, the signal to noise using an endpoint analysis after the reads was at least three-fold. Alternatively, after Alamar blue reading, plates were rinsed with PBS, 50 ul of DMEM (high glucose) without phenol red was added and plates were then used for luciferase assay using the Promega Dual-Glo Luciferase Assay System.
Compound analysis was determined by quantification of the relative HCV replicon inhibition and the relative cytotoxicity values. To calculate cytoxicity values, the average Alamar Blue fluorescence signals from the control wells were set as 100% non-toxic. The individual signals in each of the compound test wells were then divided by the average control signal and multiplied by 100% to determine […]. To calculate the HCV replicon inhibition values, an average background value was obtained from the two wells containing the highest amount of HCV protease inhibitor at the end of the assay period. These numbers were similar to those obtained from naïve Huh-7 cells.
The background numbers were then subtracted from the average signal obtained from the control wells and this number was used as 100% activity. The individual signals in each of the compound test wells were then divided by the averaged control values after background subtraction and multiplied by 100% to determine percent activity. EC50 values for a protease inhibitor titration were calculated as the concentration which caused a 50% reduction in FRET or luciferase activity. The two numbers generated for the compound plate, percent cytoxicity and percent activity were used to determine compounds of interest for further analysis.

HCV NS5B = target: T1, HCV NS5B (Hepatitis C virus genotype 1b, UniProt Q9WMX2); assay: HCV NS5B RdRp enzyme assay (preincubation protocol); assay type: biochemical
T1 construct: The protein was expressed with an 18 amino acid C-terminal truncation to enhance the solubility; made in house; host or cells: E. coli BL21 (DE3), pET21a
T1 sequence (Q9WMX2 2420-2992): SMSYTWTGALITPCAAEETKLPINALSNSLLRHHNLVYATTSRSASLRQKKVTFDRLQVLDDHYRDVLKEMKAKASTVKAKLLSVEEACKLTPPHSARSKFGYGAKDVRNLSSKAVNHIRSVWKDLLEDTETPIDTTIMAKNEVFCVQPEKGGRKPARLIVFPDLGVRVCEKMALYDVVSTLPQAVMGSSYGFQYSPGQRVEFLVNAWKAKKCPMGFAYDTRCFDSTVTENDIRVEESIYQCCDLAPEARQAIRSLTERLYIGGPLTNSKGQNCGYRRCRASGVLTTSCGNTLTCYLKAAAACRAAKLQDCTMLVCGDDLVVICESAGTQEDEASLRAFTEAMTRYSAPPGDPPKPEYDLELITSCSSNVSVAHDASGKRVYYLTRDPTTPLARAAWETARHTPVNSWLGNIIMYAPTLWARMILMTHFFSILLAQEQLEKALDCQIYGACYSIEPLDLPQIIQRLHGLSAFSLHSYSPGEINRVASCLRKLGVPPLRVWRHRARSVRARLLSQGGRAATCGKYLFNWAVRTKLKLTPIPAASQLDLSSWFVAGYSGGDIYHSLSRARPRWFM
Method in brief: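 Preincubation format: enzyme (14 nM, genotype 1b, 18-residue C-terminal truncation) meets diluted compound first; reaction started with bead-bound biotinylated dT12 primer, polyA template 0.2 nM and 0.29 μM 3H-UTP. Run 4 h, 30 °C in Hepes pH 7.5; scintillation proximity signal; IC50 fitted from seven inhibitor levels.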

Structure (SMILES) | EC50 (HCV replicon; Table 1) | IC50 (HCV NS5B; Table 1, read-out: IC50*) | other results
COc1ccc2c(c1)CC(C(=O)N1CCC(CO)CC1)Cn1c-2c(C2CCCCC2)c2ccc(C(=O)NS(=O)(=O)N(C)C)cc21 (centres unmarked) |  |  | EC50 (HCV replicon; Table 1b): 0.03 to 1 µM; IC50 (HCV NS5B; Table 1b, read-out: IC50*): 0.02 to 1 µM
O=C(NS(=O)(=O)C(F)(F)F)c1ccc2c(C3CCCCC3)c3n(c2c1)CC(C(=O)N1CCOCC1)Cc1ccccc1-3 (centres unmarked) | 0.07 to 1 µM | 0.01 to 1 µM | 
COc1ccc2c(c1)C=C(C(=O)N(C)C1CCOCC1)Cn1c-2c(C2CCCCC2)c2ccc(C(=O)NS(=O)(=O)N(C)C)cc21 |  |  | EC50 (HCV replicon; Table 1a): > 0.12 µM; IC50 (HCV NS5B; Table 1a, read-out: IC50*): 0.01 to 1 µM
CN(C)S(=O)(=O)NC(=O)c1ccc2c(C3CCCCC3)c3n(c2c1)CC(C(=O)N1CCN(S(C)(=O)=O)CC1)Cc1ccccc1-3 (centres unmarked) | 0.07 to 1 µM | 0.01 to 1 µM | 
CN(C)S(=O)(=O)NC(=O)c1ccc2c(C3CCCCC3)c3n(c2c1)CC(C(=O)N1CCC(N2CCC(F)(F)CC2)CC1)=Cc1ccccc1-3 | 0.07 to 1 µM | 0.01 to 1 µM | 
COc1ccc2c(c1)C=C(C(=O)N1CCN(c3ccccn3)CC1)Cn1c-2c(C2CCCCC2)c2ccc(C(=O)NS(=O)(=O)N(C)C)cc21 |  |  | EC50 (HCV replicon; Table 1b): 0.03 to 1 µM; IC50 (HCV NS5B; Table 1b, read-out: IC50*): 0.02 to 1 µM
COc1ccc2c(c1)C=C(C(=O)N(C)CC(=O)N(C)C)Cn1c-2c(C2CCCCC2)c2ccc(C(=O)O)cc21 | 0.07 to 1 µM | 0.01 to 1 µM | 
CCN(C(C)=O)C1CCN(C(=O)NC2Cc3cc(OC)ccc3-c3c(C4CCCCC4)c4ccc(C(=O)NS(=O)(=O)N(C)C)cc4n3C2)C1 (centres unmarked) |  |  | EC50 (HCV replicon; Table 1a): 0.03 to 1 µM; IC50 (HCV NS5B; Table 1a, read-out: IC50*): 0.01 to 1 µM
O=C(O)c1ccc2c(C3CCCCC3)c3n(c2c1)CC(C(=O)N1CCC(N2CCOCC2)CC1)=Cc1ccc(Cl)cc1-3 | 1 to 10 µM | > 1 µM | 
O=C(NS(=O)(=O)C(F)(F)F)c1ccc2c(C3CCCCC3)c3n(c2c1)CC(C(=O)N1CCOCC1)=Cc1ccccc1-3 | 1 to 10 µM | 0.01 to 1 µM | 
COC(=O)c1ccc2c(C3CCCCC3)c3n(c2c1)CC(C(=O)N(C)CC1CCCN(C)C1)Cc1ccccc1-3 (centres unmarked) | 0.07 to 1 µM | 0.01 to 1 µM | 
COc1ccc2c(c1)CC(NC(=O)N1CCN(CC(=O)NC(C)C)CC1)Cn1c-2c(C2CCCCC2)c2ccc(C(=O)NS(=O)(=O)N(C)C)cc21 (centres unmarked) |  |  | EC50 (HCV replicon; Table 1a): 0.03 to 1 µM; IC50 (HCV NS5B; Table 1a, read-out: IC50*): 0.01 to 1 µM
CN(C)S(=O)(=O)NC(=O)c1ccc2c(C3CCCCC3)c3n(c2c1)CC(C(=O)N1CCn2cnnc2C1)=Cc1ccccc1-3 | 1 to 10 µM | 0.01 to 1 µM | 
COc1ccc2c(c1)C=C(C(=O)N1CC(N(C)C)C1)Cn1c-2c(C2CCCCC2)c2ccc(C(=O)NS(=O)(=O)N(C)C)cc21 |  |  | EC50 (HCV replicon; Table 1b): 0.03 to 1 µM; IC50 (HCV NS5B; Table 1b, read-out: IC50*): 0.02 to 1 µM
CN(C)S(=O)(=O)NC(=O)c1ccc2c(C3CCCCC3)c3n(c2c1)CC(C(=O)N1CC[C@H](F)C1)=Cc1ccccc1-3 | 0.07 to 1 µM | 0.01 to 1 µM | 
COc1ccc2c(c1)C=C(C(=O)N(C)Cc1ccccn1)Cn1c-2c(C2CCCCC2)c2ccc(C(=O)NS(=O)(=O)N(C)C)cc21 |  |  | EC50 (HCV replicon; Table 1b): 0.03 to 1 µM; IC50 (HCV NS5B; Table 1b, read-out: IC50*): 0.02 to 1 µM
O=C(O)c1ccc2c(C3CCCCC3)c3n(c2c1)CC(C(=O)N1CCC(N2CCCC2=O)CC1)=Cc1ccccc1-3 | 0.07 to 1 µM | 0.01 to 1 µM | 
COc1ccc2c(c1)C=C(C(=O)N1C[C@@H](C)N(C(C)=O)[C@@H](C)C1)Cn1c-2c(C2CCCCC2)c2ccc(C(=O)NS(=O)(=O)N(C)C)cc21 |  |  | EC50 (HCV replicon; Table 1a): 0.03 to 1 µM; IC50 (HCV NS5B; Table 1a, read-out: IC50*): 0.01 to 1 µM
COc1ccc(S(=O)(=O)NC(=O)c2ccc3c(C4CCCCC4)c4n(c3c2)CC(C(=O)N2CCOCC2)=Cc2ccccc2-4)cc1 | 0.07 to 1 µM | 0.01 to 1 µM | 
CN(C)S(=O)(=O)NC(=O)c1ccc2c(C3CCCCC3)c3n(c2c1)CC(C(=O)N1CCN(c2ncncn2)CC1)=Cc1ccccc1-3 | 0.07 to 1 µM | 0.01 to 1 µM | 
COC(=O)c1ccc2c(C3CCCCC3)c3n(c2c1)CC(C(=O)N1CCC(C(N)=O)C1)=Cc1ccccc1-3 (centres unmarked) | 1 to 10 µM | > 1 µM | 
COC[C@@H]1CN(C(=O)C2=Cc3cc(OC)ccc3-c3c(C4CCCCC4)c4ccc(C(=O)NS(=O)(=O)N(C)C)cc4n3C2)CCO1 |  |  | EC50 (HCV replicon; Table 1b): 0.03 to 1 µM; IC50 (HCV NS5B; Table 1b, read-out: IC50*): 0.02 to 1 µM
